Ki data for 25 compounds are collected here from ChEMBL document CHEMBL1141186, “2-(Benzimidazol-2-yl)quinoxalines: a novel class of selective antagonists at human A(1) and A(3) adenosine receptors designed by 3D database searching” (J Med Chem, 2005).

Format in all cases: cell-based
The target of one assay is T1, Adenosine receptor A1 (Homo sapiens, UniProt P30542).
T1 sequence (P30542 whole entry): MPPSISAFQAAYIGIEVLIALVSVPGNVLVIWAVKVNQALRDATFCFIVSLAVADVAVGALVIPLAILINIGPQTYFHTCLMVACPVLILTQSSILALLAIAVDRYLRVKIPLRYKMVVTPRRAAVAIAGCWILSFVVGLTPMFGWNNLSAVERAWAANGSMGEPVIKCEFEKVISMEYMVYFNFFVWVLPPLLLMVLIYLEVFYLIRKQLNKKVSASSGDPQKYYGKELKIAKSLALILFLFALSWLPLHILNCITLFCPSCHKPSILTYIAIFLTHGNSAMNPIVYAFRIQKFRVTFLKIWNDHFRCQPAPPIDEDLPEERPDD
The assay is described as follows: Displacement of [3H]DPCPX from human adenosine A1 receptor expressed in CHO cells.

For a further assay, the target named is T2, Adenosine receptor A3 (Homo sapiens, UniProt P0DMS8).
T2 sequence (P0DMS8 whole entry): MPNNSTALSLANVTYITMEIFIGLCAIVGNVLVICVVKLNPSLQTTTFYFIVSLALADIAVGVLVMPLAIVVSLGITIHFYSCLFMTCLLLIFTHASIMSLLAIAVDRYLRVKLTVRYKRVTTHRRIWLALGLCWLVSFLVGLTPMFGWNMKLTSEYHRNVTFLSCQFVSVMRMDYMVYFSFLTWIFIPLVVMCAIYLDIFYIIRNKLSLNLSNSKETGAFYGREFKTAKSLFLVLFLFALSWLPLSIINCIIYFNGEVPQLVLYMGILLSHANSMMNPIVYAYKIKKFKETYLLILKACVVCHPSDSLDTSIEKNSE
Description: Displacement of [125I]AB-MECA from human adenosine A3 receptor expressed in CHO cells. For orientation: In a radioligand displacement assay an active substance lowers the binding of a labelled ligand.

The target in another assay is Adenosine receptor A2a (Homo sapiens, UniProt P29274). The assay is described as follows: Displacement of [3H]NECA from human adenosine A2A receptor expressed in CHO cells.
Sequence of Adenosine receptor A2a (P29274 whole entry): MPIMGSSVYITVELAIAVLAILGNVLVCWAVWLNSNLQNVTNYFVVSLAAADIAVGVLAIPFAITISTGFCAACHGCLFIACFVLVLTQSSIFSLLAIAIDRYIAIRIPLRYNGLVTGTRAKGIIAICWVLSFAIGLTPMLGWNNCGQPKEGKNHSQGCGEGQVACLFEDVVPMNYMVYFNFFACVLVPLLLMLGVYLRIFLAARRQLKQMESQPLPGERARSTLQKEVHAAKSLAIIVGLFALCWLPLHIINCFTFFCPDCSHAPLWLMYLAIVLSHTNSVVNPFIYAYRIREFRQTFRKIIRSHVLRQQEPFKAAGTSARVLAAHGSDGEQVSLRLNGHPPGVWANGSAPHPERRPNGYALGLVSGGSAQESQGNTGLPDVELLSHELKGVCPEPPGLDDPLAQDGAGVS

As to `Cc1cc2nc(-c3cnc4ccccc4n3)[nH]c2cc1C`, the Ki is above 10000 nM at Adenosine receptor A1, 370 nM on Adenosine receptor A3 and above 10 µM at Adenosine receptor A2a.

On to `Oc1c2nnnc-2nc2n1CCS2`, for which the Ki at Adenosine receptor A1 was above 10000 nM; on Adenosine receptor A3, above 1000 nM; on Adenosine receptor A2a it was above 10 µM.

Regarding `c1ccc(-c2nnc(-c3ccccn3)[nH]2)nc1`, the Ki on Adenosine receptor A1 was above 10000 nM; on Adenosine receptor A2a, above 10 µM.

In the case of `Cc1ccc2[nH]c(-c3cnc4ccccc4n3)nc2c1`, the inhibitory constant (Ki) on Adenosine receptor A1 is above 10000 nM; at Adenosine receptor A3, above 1000 nM; at Adenosine receptor A2a, above 10 µM.

For `COc1ccc2nc(-c3cnc4ccccc4n3)[nH]c2c1`, the values for the Ki at Adenosine receptor A1, at Adenosine receptor A3 and at Adenosine receptor A2a were above 10000 nM, above 1000 nM and above 10 µM, respectively.

With `Oc1c2nnnc-2nc2sccn12`, the Ki on Adenosine receptor A1 is above 10000 nM; at Adenosine receptor A3, above 1000 nM; on Adenosine receptor A2a, above 10 µM.

On to `c1ccc2nc(-c3nc4ncncc4[nH]3)cnc2c1`, for which the results for the Ki on Adenosine receptor A1, at Adenosine receptor A3 and at Adenosine receptor A2a were above 10000 nM, above 1000 nM and above 10 µM, respectively.

Consider `Cc1nc2c([nH]1)c1nc(C)[nH]c1c1nc(C)[nH]c21`, for which the Ki at Adenosine receptor A1 is above 10000 nM; on Adenosine receptor A2a, above 10 µM.

Turning to `c1c[nH]c2nc(-c3cnc4ccccc4n3)nc-2c1`, the Ki on Adenosine receptor A1 is above 10000 nM; at Adenosine receptor A3, above 1000 nM; at Adenosine receptor A2a, above 10 µM.

Take `CSc1cccc2nc(-c3cnc4ccccc4n3)[nH]c12`: the Ki at Adenosine receptor A1 was 2.1 nM; at Adenosine receptor A3, 278 nM; on Adenosine receptor A2a, 3 µM.

For the compound `CCc1nc2c([nH]1)c1nc(C)[nH]c1c1nc(CC)[nH]c12`, the Ki on Adenosine receptor A1 is 966 nM; on Adenosine receptor A3, 135 nM; at Adenosine receptor A2a, 0.329 µM.

With `CC1CSc2nc3nnnc-3c(O)n21` (configuration not stated), the figures for the Ki at Adenosine receptor A1 and on Adenosine receptor A2a were above 10000 nM and above 10 µM, respectively.

As for `Clc1cc(Cl)c2[nH]c(-c3cnc4ccccc4n3)nc2c1`, the Ki at Adenosine receptor A1 was 9.3 nM; on Adenosine receptor A3, 699 nM; at Adenosine receptor A2a, above 10 µM.

The compound `O=c1[nH]c2ccccc2nc1-c1cc(Cl)[nH]n1` had a Ki at Adenosine receptor A2a above 10 µM.

In the case of `Cc1cc(Cl)cc2[nH]c(-c3cnc4ccccc4n3)nc12`, the Ki at Adenosine receptor A1 was 3.6 nM; at Adenosine receptor A3, 238 nM; on Adenosine receptor A2a, above 10 µM.

On to `c1ccc2nc(-c3nc4ccccc4[nH]3)cnc2c1`, for which the Ki at Adenosine receptor A1 stood at 50 nM; at Adenosine receptor A2a it was 0.561 µM.

Turning to `Cc1cccc2[nH]c(-c3cnc4ccccc4n3)nc12`, the Ki was 8000 nM at Adenosine receptor A1 and 0.833 µM on Adenosine receptor A2a.

With `CCc1nc2c([nH]1)c1nc(CC)[nH]c1c1nc(CC)[nH]c21`, the Ki was 46 nM at Adenosine receptor A1, 104 nM at Adenosine receptor A3 and 0.72 µM at Adenosine receptor A2a.

Take `Clc1ccc2[nH]c(-c3cnc4ccccc4n3)nc2c1`: the Ki at Adenosine receptor A1 was above 10000 nM; at Adenosine receptor A3, 632 nM; at Adenosine receptor A2a, above 10 µM.

As to `O=[N+]([O-])c1cccc2[nH]c(-c3cnc4ccccc4n3)nc12`, the Ki at Adenosine receptor A1 is above 10000 nM; at Adenosine receptor A3, 879 nM; on Adenosine receptor A2a, above 10 µM.

As to `Oc1c2nnnc-2nc2n1CCCS2`, the Ki was above 10000 nM at Adenosine receptor A1, 437 nM at Adenosine receptor A3 and above 10 µM on Adenosine receptor A2a.

As for `c1ccc2nc(-c3nc4cc[nH]cc-4n3)cnc2c1`, the Ki on Adenosine receptor A1 is above 10000 nM; at Adenosine receptor A3 it was 168 nM; on Adenosine receptor A2a, above 10 µM.

Turning to `CCSc1cccc2[nH]c(-c3cnc4ccccc4n3)nc12`, the Ki at Adenosine receptor A1 came to 0.5 nM; at Adenosine receptor A2a it was 3.44 µM.

As for `Clc1cccc2nc(-c3cnc4ccccc4n3)[nH]c12`, the values for the Ki on Adenosine receptor A1, on Adenosine receptor A3 and on Adenosine receptor A2a were 350 nM, 140 nM and above 10 µM, respectively.

For `CCc1nc2c3[nH]c(C)nc3c3nc(C)[nH]c3c2[nH]1`, the Ki was 496 nM at Adenosine receptor A1, 147 nM on Adenosine receptor A3 and above 10 µM on Adenosine receptor A2a.

The Ki is a dissociation constant, usually derived from enzyme kinetics or from competition with a known ligand. A lower Ki goes with a stronger hold on the target.
